Results on 30 compounds are retold here after ChEMBL document CHEMBL1131925, “Modulation of multidrug resistance in tumor cells by taxinine derivatives” (Bioorg Med Chem Lett, 1999).

≈ marks a conversion by molar mass, not a printed value.

Assay [1] can be described thus: Amount of vincristine (VCR) accumulation in multidrug-resistant human ovarian cancer 2780AD cells at a concentration of 1 ug/mL. It is filed as functional, A2780 ADR.
Assay [2] in a line: Amount of vincristine (VCR) accumulation in multidrug-resistant human ovarian cancer 2780AD cells at a concentration of 10 ug/mL. Type of assay: functional, A2780 ADR.
A short description of assay [3]: Cytotoxicity against murine lymphoma L1210 cells. It is filed as functional, cell-based. The settings on record: Mus musculus.
A short description of assay [4]: Cytotoxicity against human epidermoid carcinoma KB cells. Type of assay: functional, cell-based.

As to `CC(=O)O[C@@H]1[C@@H]2CC(=O)C(C)=C([C@@H](OC(C)=O)[C@H](OC(C)=O)[C@]3(C)CC[C@H](O)[C@]4(CO4)[C@@H]13)C2(C)C`, the “Vincristine accumulation (% of control)” value in assay [1] came out at 144%. This compound also yielded a Vincristine accumulation in assay [2] of 238%.
As to `CC[Si](CC)(CC)O[C@H]1CC[C@@]2(C)[C@@H](OC(C)=O)[C@H](OC(C)=O)C3=C(C)C(=O)C[C@@H]([C@@H](OC(C)=O)[C@@H]2[C@@]12CO2)C3(C)C`, the “Vincristine accumulation (% of control)” value in assay [1] is 227%. In addition, the Vincristine accumulation in assay [2] is given as 748%.
The matching figures for `C=C1[C@@H](OC(=O)/C=C/c2ccccc2)CC[C@@]2(C)[C@@H](O)[C@H](O)C3=C(C)C(=O)C[C@@H]([C@@H](O)[C@H]12)C3(C)C`: 225% and 518%.
The corresponding values for `C=C1[C@@H](O)CC[C@@]2(C)[C@@H](OC(C)=O)[C@H](OC(C)=O)C3=C(C)C(=O)C[C@@H]([C@@H](O)[C@H]12)C3(C)C` are 139% and 271%.
For `C=C1[C@@H](OC(=O)/C=C/c2ccccc2)CC[C@@]2(C)[C@@H](OC(C)=O)[C@H](OC(C)=O)C3=C(C)C(=O)C[C@@H]([C@@H](OC(C)=O)[C@H]12)C3(C)C`, the “Vincristine accumulation (% of control)” value in assay [1] came out at 195%. The same compound registered a Vincristine accumulation in assay [2] of 571%.
With `C=C1[C@@H](OCOCc2ccccc2)CC[C@@]2(C)[C@@H](OC(C)=O)[C@H](OC(C)=O)C3=C(C)C(=O)C[C@@H]([C@@H](OC(C)=O)[C@H]12)C3(C)C`, the figures for the half-maximal inhibitory concentration (IC50) in assay [3] and in assay [4] were 8 µg/mL (≈ 13.4 µM) and 9 µg/mL (≈ 15.1 µM), respectively. Moreover, in assay [1], the “Vincristine accumulation (% of control)” value is 401%. In assay [2], this compound showed a Vincristine accumulation of 1110%.
As to `C=C1[C@@H](O)CC[C@@]2(C)[C@@H](OC(C)=O)[C@H](OC(C)=O)C3=C(C)[C@@H](O)C[C@@H]([C@@H](OC(C)=O)[C@H]12)C3(C)C`, the “Vincristine accumulation (% of control)” value in assay [1] is 164%. This compound also showed a Vincristine accumulation in assay [2] of 422%.
`C=C1[C@@H](OC(=O)/C=C/c2ccccc2)CC[C@@]2(C)[C@@H](OC(=O)/C=C/c3ccccc3)[C@H](OC(=O)/C=C/c3ccccc3)C3=C(C)C(=O)C[C@@H]([C@@H](OC(C)=O)[C@H]12)C3(C)C`: the “Vincristine accumulation (% of control)” value in assay [1] is 181%. In assay [2], the Vincristine accumulation came out at 273%.
As to `C=C1[C@@H](O)CC[C@@]2(C)[C@@H](OC(C)=O)[C@H](OC(C)=O)C3=C(C)[C@H](OC(=O)/C=C/c4ccccc4)C[C@@H]([C@@H](OC(C)=O)[C@H]12)C3(C)C`, the “Vincristine accumulation (% of control)” value in assay [1] was determined as 213%. In addition, the Vincristine accumulation in assay [2] is reported as 551%.
The corresponding values for `CC(=O)O[C@@H]1[C@@H]2CC(=O)C(C)=C([C@@H](OC(C)=O)[C@H](OC(C)=O)[C@]3(C)CC[C@H](OC(=O)c4ccccc4)[C@@]4(CO4)[C@@H]13)C2(C)C` are 140% and 402%.
For the compound `C=C1[C@@H](OC(=O)c2ccccc2)CC[C@@]2(C)[C@@H](OC(C)=O)[C@H](OC(C)=O)C3=C(C)C(=O)C[C@@H]([C@@H](OC(=O)c4ccccc4)[C@H]12)C3(C)C`, in assay [1], the “Vincristine accumulation (% of control)” value is on record as 146%. The same compound displayed a Vincristine accumulation in assay [2] of 470%.
In the case of `C=C1[C@@H](OC(=O)/C=C/c2ccccc2)CC[C@@]2(C)[C@@H](OC(=O)c3ccccc3)[C@H](OC(=O)c3ccccc3)C3=C(C)C(=O)C[C@@H]([C@@H](OC(C)=O)[C@H]12)C3(C)C`, the “Vincristine accumulation (% of control)” value in assay [1] is 141%. This compound gave a Vincristine accumulation in assay [2] of 210%.
The matching figures for `C=C1[C@@H](O)CC[C@@]2(C)[C@@H](OC(C)=O)[C@H](OC(C)=O)C3=C(C)[C@@H](OC(=O)c4ccccc4)C[C@@H]([C@@H](OC(C)=O)[C@H]12)C3(C)C`: 185% and 643%.
For the compound `C=C1[C@@H](O)CC[C@@]2(C)[C@@H](OC(C)=O)[C@H](OC(C)=O)C3=C(C)[C@@H](OC(=O)/C=C/c4ccccc4)C[C@@H]([C@@H](OC(C)=O)[C@H]12)C3(C)C`, the “Vincristine accumulation (% of control)” value in assay [1] is given as 249%. Also, in assay [2], the Vincristine accumulation amounted to 699%.
The matching figures for `C=C1[C@@H](OC(=O)c2ccccc2)CC[C@@]2(C)[C@@H](OC(C)=O)[C@H](OC(C)=O)C3=C(C)[C@@H](O)C[C@@H]([C@@H](OC(C)=O)[C@H]12)C3(C)C`: 151% and 649%.
The matching figures for `C=C1[C@@H](O)CC[C@@]2(C)[C@@H](OC(C)=O)[C@H](OC(C)=O)C3=C(C)C(=O)C[C@@H]([C@@H](OC(=O)/C=C/c4ccccc4)[C@H]12)C3(C)C`: 207% and 727%.
The matching figures for `C=C1[C@@H](O[Si](CC)(CC)CC)CC[C@@]2(C)[C@@H](OC(C)=O)[C@H](OC(C)=O)C3=C(C)C(=O)C[C@@H]([C@@H](OC(C)=O)[C@H]12)C3(C)C`: 213% and 669%.
For the compound `C=C1[C@@H](OC(=O)c2ccccc2)CC[C@@]2(C)[C@@H](OC(C)=O)[C@H](OC(C)=O)C3=C(C)C(=O)C[C@@H]([C@@H](OC(C)=O)[C@H]12)C3(C)C`, the “Vincristine accumulation (% of control)” value in assay [1] stood at 184%. The compound further returned a Vincristine accumulation in assay [2] of 645%.
Turning to `C=C1[C@@H](OC(=O)c2ccccc2)CC[C@@]2(C)[C@@H](OC(=O)c3ccccc3)[C@H](OC(=O)c3ccccc3)C3=C(C)C(=O)C[C@@H]([C@@H](OC(C)=O)[C@H]12)C3(C)C`, the “Vincristine accumulation (% of control)” value in assay [1] turned out to be 132%. The same compound showed a Vincristine accumulation in assay [2] of 324%.
On to `C=C1[C@@H](O)CC[C@@]2(C)[C@@H](OC(C)=O)[C@H](OC(C)=O)C3=C(C)[C@H](O)C[C@@H]([C@@H](OC(C)=O)[C@H]12)C3(C)C`, for which the “Vincristine accumulation (% of control)” value in assay [1] was 149%. The same compound came in with a Vincristine accumulation in assay [2] of 290%.
Regarding `CC[Si](CC)(CC)O[C@H]1CC[C@@]2(C)[C@@H](OC(C)=O)[C@H](OC(C)=O)C3=C(C)C(=O)C[C@@H]([C@@H](OC(C)=O)[C@@H]2[C@]12CO2)C3(C)C`, the “Vincristine accumulation (% of control)” value in assay [1] was determined as 233%. In assay [2], this compound showed a Vincristine accumulation of 752%.
As for `CC(=O)O[C@@H]1[C@@H]2CC(=O)C(C)=C([C@@H](OC(C)=O)[C@H](OC(C)=O)[C@]3(C)CC[C@H](OC(=O)/C=C/c4ccccc4)[C@@]4(CO4)[C@@H]13)C2(C)C`, the IC50 in assay [3] is 3 µg/mL (≈ 4.82 µM); in assay [4], over 10 µg/mL. Besides, the “Vincristine accumulation (% of control)” value in assay [1] is given as 358%. This compound also gave a Vincristine accumulation in assay [2] of 1027%.
Take `C=C1[C@@H](OC(=O)/C=C/c2ccccc2)CC[C@@]2(C)[C@@H](OC(=O)/C=C/c3ccccc3)[C@H](OC(=O)/C=C/c3ccccc3)C3=C(C)C(=O)C[C@@H]([C@@H](OC(=O)/C=C/c4ccccc4)[C@H]12)C3(C)C`: the “Vincristine accumulation (% of control)” value in assay [1] is listed as 186%. Also, in assay [2], the Vincristine accumulation turned out to be 230%.
In the case of `CC(=O)O[C@@H]1[C@@H]2CC(=O)C(C)=C([C@@H](OC(C)=O)[C@H](OC(C)=O)[C@]3(C)CC[C@H](OC(=O)c4ccccc4)[C@]4(CO4)[C@@H]13)C2(C)C`, the “Vincristine accumulation (% of control)” value in assay [1] is 200%. Also, the Vincristine accumulation in assay [2] amounted to 391%.
The corresponding values for `CC(=O)O[C@@H]1[C@@H]2CC(=O)C(C)=C([C@@H](OC(C)=O)[C@H](OC(C)=O)[C@]3(C)CC[C@H](O)[C@@]4(CO4)[C@@H]13)C2(C)C` are 180% and 364%.
For `C=C1[C@@H](OC(=O)/C=C/c2ccccc2)CC[C@@]2(C)[C@@H](OC(C)=O)[C@H](OC(C)=O)C3=C(C)[C@H](OC(=O)/C=C/c4ccccc4)C[C@@H]([C@@H](OC(C)=O)[C@H]12)C3(C)C`, the “Vincristine accumulation (% of control)” value in assay [1] is 157%. Moreover, the Vincristine accumulation in assay [2] turned out to be 234%.
On to `C=C1[C@@H](OC(=O)c2ccccc2)CC[C@@]2(C)[C@@H](OC(C)=O)[C@H](OC(C)=O)C3=C(C)[C@H](OC(=O)c4ccccc4)C[C@@H]([C@@H](OC(C)=O)[C@H]12)C3(C)C`, for which the “Vincristine accumulation (% of control)” value in assay [1] is listed as 197%. The Vincristine accumulation in assay [2] is recorded as 391%.
In the case of `C=C1[C@@H](OC(=O)/C=C/c2ccccc2)CC[C@@]2(C)[C@@H](O)[C@H](O)C3=C(C)C(=O)C[C@@H]([C@@H](OC(C)=O)[C@H]12)C3(C)C`, the “Vincristine accumulation (% of control)” value in assay [1] is listed as 274%. Besides, the Vincristine accumulation in assay [2] was found to be 619%.
The matching figures for `C=C1[C@@H](O)CC[C@@]2(C)[C@@H](OC(C)=O)[C@H](OC(C)=O)C3=C(C)C(=O)C[C@@H]([C@@H](OC(C)=O)[C@H]12)C3(C)C` [TAXININE A]: 153% and 461%.
The corresponding values for `COc1ccc(CCN(C)CCCC(C#N)(c2ccc(OC)c(OC)c2)C(C)C)cc1OC` (centres undefined) [VERAPAMIL] are 254% and 739%.
